Measurements reported in a melting point compilation (Tetko et al.; mined from patent text by program, amines drawn as free bases though some values may be those of a salt).

melting point | Compound
218 to 221 °C | CC(=O)c1ccc(-c2nn(C(C)c3oc4ccccc4c(=O)c3-c3cccc(F)c3)c3ncnc(N)c23)cc1 (stereo not given)
116 to 117 °C | CCN(CC)CCNC(=O)c1cc(Cl)c(N)cc1OCCCS(C)=O (stereo not given)
121 °C | O=C(O)Cc1cccc(C(=O)c2cc3ccsc3s2)c1
86 to 88 °C | CC(C)(C)OC(=O)NCC(CCn1ccc(=O)[nH]c1=O)COC(c1ccccc1)(c1ccccc1)c1ccccc1 (stereo not given)
114 to 118 °C | CC[C@H](C)[C@H](O)C(=O)N1CCC(Oc2cc3ncnc(Nc4cccc(Cl)c4F)c3cc2OC)CC1
62 to 64 °C | CC(=CC(=O)c1cccnc1)N(C)C
58 to 60 °C | CCCN(CCC)S(=O)(=O)c1cccc(C2(O)CCC(=O)N2C)c1 (stereo not given)
140 to 142 °C | CCCCNc1c(C(=O)OCC)c(C)nc(S)c1[N+](=O)[O-]
127 to 128 °C | CC(C)OC(=O)Cn1c(=O)n(C)c(=O)n(-c2ccc(F)cc2Cl)c1=O
277 to 280 °C | COc1ccc2cc3c(c(-c4ccc(OC(F)(F)F)cc4)c2c1)CNC3=O
52 to 54 °C | CC(C(=O)O)c1ccc(O[Si](C)(C)C(C)(C)C)cc1 (stereo not given)
137 to 138 °C | COC(=O)N1c2ccccc2Sc2nccnc21
233 to 235 °C | Cc1ccc(S(=O)(=O)OC[C@H]2COc3cc(C)c4c(c3O2)CC(=O)N4)cc1
232 °C | O=C(Nc1cccc(S(=O)(=O)NC2CC2)c1)c1cnn2c(C(F)(F)F)cc(-c3ccc(C(F)(F)F)cc3)nc12
78 °C | CCCCCC(=O)OCc1nccc(O)n1
102 to 104 °C | CCOC(=O)c1ccc(C#Cc2ccc3c(c2)C(=O)CC(C)(C)S3)cc1
205 to 206 °C | Cc1cc(Cn2nnc(C(N)=O)c2N)cc(Cl)c1C(=O)c1ccc(Cl)cc1
176 to 178 °C | Nc1nc(-c2cc(Cl)ccc2Cl)nc(N2CCC(O)(c3ccccc3)CC2)n1
115 to 118 °C | O=C(NCCCC(CCCNC(=O)c1ccccc1)OC(F)(F)F)c1ccccc1
126 to 127 °C | CCOc1cccnc1CSCCNC(=C[N+](=O)[O-])SC
111 to 113 °C | COC(=O)c1ccnc(N2CCN(Cc3ccncc3)C2=O)c1
176 to 178 °C | NCCNC(=O)COc1ccc(C2=NNC(=O)CC2)cc1
159 to 170 °C | COC(=O)CN(c1ccccc1C)S(=O)(=O)c1ccccc1C(=O)c1cc(OC)c2c(c1)OCO2

melting point | Compound
264 to 266 °C | Cc1nc2cc(C(C)(C)C)c(O)cc2o1
193 to 194 °C | CCOC(=O)c1ncn(C)c1N
79.5 to 81.5 °C | CC(C)(C)S(=O)(=O)CCOCCn1ccc2ncnc(Nc3ccc(Oc4cccc(C(F)(F)F)c4)c(Cl)c3)c21
149 to 154 °C | CC(C)(C)NCC(O)COc1ccc(-c2nc(C(N)=O)c[nH]2)cc1 (stereo not given)
228 to 234 °C | COc1ccc(-c2cnc3cc4cnn(C[C@@H](O)CO)c4cc3n2)cc1F
206 to 208 °C | O=C(NCc1ccccc1)Nc1ccc(Cl)cc1
92 to 93.5 °C | O=C1CCC(c2ccc3c(c2)OCO3)CC1
78 to 80 °C | CCCc1[nH]c(C(=O)OCC)c(CCC)c1C
> 210 °C | CCCCCCCCCCOc1ccc2c(=O)c3cc(C(=O)O)ccc3oc2c1CCC(=O)O
84 °C | Cc1c(CCCCCCC(=O)O)cccc1C(=O)c1ccc(Cl)cc1
67 to 69 °C | CC(C)=CCCC(C)=CCOc1ccc(C(=O)NCCc2ccccn2)cc1
118 to 120 °C | OC1(c2ccc(F)c(F)c2)CCC2(CC1)OCCO2
224 to 225 °C | O=[N+]([O-])c1ccc(NN=C(c2ccccc2)c2ccc(O)cc2)c([N+](=O)[O-])c1
143 to 146 °C | COc1ccc(N(Cc2cnn(Cc3ccc(F)cc3)c2)C(=O)C2CCCc3c(O)cccc32)cc1 (stereo not given)
201 °C | ClCCCOc1ccc(-c2ccc(OCCCCl)cc2)cc1
210 to 212 °C | O=C(Nc1ccc2cc(CN3CCCC3)cnc2c1)c1ccc(-c2ccc(F)cc2)cc1
53 to 55 °C | CCOC(=O)C(=Cc1ccccn1)C(=O)C(C)C
198 to 199 °C | CC(C)CCOc1c(Sc2ccc(C(C)(C)C)cc2)c(Sc2ccccc2N)c(OCCC(C)C)c2c1C(=N)NC2=N
88 to 90 °C | O=C(CCCNC(=O)C(=O)c1cn2c3c(cccc13)CCC2)NOCc1ccccc1
186 °C | O=C(O)Cc1nn(Cc2ccc(Br)c(Cl)c2)c(=O)c2ccccc12
100 to 101 °C | CC1(C)CCc2c(N3CCOCC3)nc3sc4c(NCCN5CCOCC5)ncnc4c3c21
80 to 83 °C | CCCCOCC(O)COc1ccc(-c2nc(-c3ccc(C)cc3C)nc(-c3ccc(C)cc3C)n2)c(O)c1 (stereo not given)
150 to 156 °C | CC1(C)CCC(=O)Nc2cc(Nc3ncc(Cl)c(Nc4ccc(N5CCOCC5)cc4OCCC#N)n3)ccc21

melting point | Compound
116 to 118 °C | CC(=O)NC(CSC(=O)C(C)C)C(=O)NCCSC(C)=O (stereo not given)
159 to 160 °C | Cn1ccc2cccc(C(=O)N3CCN(c4ncccn4)CC3)c21
160 °C | CCCn1cncc1-c1ccc(O)cc1
111 to 113 °C | COc1ccc(C2CCN(c3c(C)c(C)c4c(c3C)C(c3ccsc3)C(C)(C)O4)CC2)cc1OC (stereo not given)
150 to 151 °C | CCOP(=O)(OCC)c1nc(Nc2ccccc2)nc(N2CCCC2)n1
142 to 146 °C | CCOc1ccc(NC(N)=S)cn1
119 to 121 °C | COc1cccc(CCc2c(CCNC(=O)CCCCC(=O)O)ccc(OC)c2OC)c1
174 to 175 °C | CCOC(=O)c1cc2cc(F)cc(NS(=O)(=O)c3cccs3)c2[nH]1
241 to 242 °C | COCCCCCCOc1ccc(C#Cc2ccc(C(=O)O)cc2)cc1C12CC3CC(CC(C3)C1)C2
130 °C | CC(C)Nc1c(C#N)cnn1-c1c(Cl)cc(SC(F)(F)F)cc1Cl
200 °C | NC(CSCC(O)CN1CCOCC1)C(=O)O (stereo not given)
261 to 264 °C | Cc1cccc(-c2c3c(cc4ccc5c(c24)OCO5)C(=O)NC3=O)c1
184 to 186 °C | O=C1NC(=O)C(Cc2cc(Cl)ccc2[N+](=O)[O-])N1 (stereo not given)
143 to 146 °C | CCC(=O)c1cnc2c(O)cccc2c1Nc1ccc(F)cc1C
107 to 111 °C | CC1(C)SCN(CCCCN2CCN(c3ccc4ccccc4n3)CC2)C1=O
217 to 220 °C | CCOC(=O)c1cn(CC)c2c(F)c(F)c(F)c(F)c2c1=O
44 to 45 °C | CCCCCCCCCCCCCCCCCCSSSSCCCCCCCCCCCCCCCCCC
159 °C | O=C(NCCO)c1cc(-c2ccnc(Nc3cccc(OC(F)(F)C(F)F)c3)n2)ccn1
158 °C | COC(=O)c1ccc(Cl)c(CN2CCSC2=NC#N)c1Cl
226 to 228 °C | Cn1cc(I)c(=O)n(C)c1=O
79 to 82 °C | CCCCCCCCCCCCCCCCCCOc1cn(C)c(CNCCCO)cc1=O

Compound | melting point
Cc1cc(C2=CCN(CCCC(O)c3ccccc3)CC2)on1 (stereo not given) | 108 to 109 °C
COc1cccc(NC(=O)NC2N=C(c3ccccc3F)c3cccc(C)c3N(CC(=O)N3CC4CCC(CC4)C3)C2=O)c1 (stereo not given) | 241 to 243 °C
CCOC(=O)c1ncn2c1CN(C)C(=S)c1ccccc1-2 | 164 to 165 °C
